Earlier results, collected in patent US20110064803A1, “NANOPARTICULATE AND CONTROLLED RELEASE COMPOSITIONS COMPRISING VITAMIN K2” (ELAN PHARMA INTERNATIONAL LIMITED., priority 2005, published 2011).
Like-named read-outs stand apart in the source and are kept apart here.

How the values were obtained:
[1] = oral
[2] = not given; remark: listed apart in the source

Row | Structure (SMILES) | Persistence of drug effects ([1]; conventional IR tablets) | Persistence of drug effects ([1]; extended release formulations) | Solubility in ethanol (99.5) (ethanol (99.5)) | Solubility in hexane (hexane) | Solubility in methanol (methanol) | Solubility in water (water) | Stability to light [2]
1 | COC(=O)C(c1ccccc1)C1CCCCN1 (stereo not drawn) [methylphenidate, α-phenyl-2-piperidine acetic acid methyl ester] | 3 to 6 h | up to 8 hours | – | – | – | – | –
2 | CC(C)=CCC/C(C)=C/CC/C(C)=C/CC/C(C)=C/CC1=C(C)C(=O)c2ccccc2C1=O [Vitamin K2] | – | – | soluble | very soluble | slightly soluble | practically insoluble | decomposes and the color becomes more intense by light
